Reference: patent EP0908457B1, “3-(1,2-benzisothiazol- and isoxazol-5-Y1)-2,4(1H,3H)-pyrimidinedione or thione and 3-(1,2-benzisothiazol- and isoxazol-5-y1)-4(3H)-pyrimidinone or thione herbicidal agents” (BASF AKTIENGESELLSCHAFT, priority 1997, dated 1999)

Columns and labels:
[1] = system: Echinochloa oryzoides (Ard.) Fritsch.; assay: Preemergence weed control under flooded paddy conditions, ECHORC (Watergrass (Calif.)); type: in vivo; conditions: flooded paddy, rated three to four weeks after treatment; further: meaning of each grade not given here
[2] = system: Cyperus iria; assay: Preemergence weed control under flooded paddy conditions, CYPIR (Rice Flatsedge); type: in vivo; conditions: flooded paddy, rated three to four weeks after treatment; further: meaning of each grade not given here
[3] = system: Cyperus serotinus, Rottb.; assay: Preemergence weed control under flooded paddy conditions, CYPSE (Flatsedge); type: in vivo; conditions: rated three to four weeks after treatment; further: meaning of each grade not given here
[4] = system: Monochoria vaginalis, Presl.; assay: Preemergence weed control under flooded paddy conditions, MOOVA (Monochoria); type: in vivo; conditions: flooded paddy, rated three to four weeks after treatment; further: meaning of each grade not given here
[5] = system: Sagittaria pygmaea, L.; assay: Preemergence weed control under flooded paddy conditions, SAGPY (Arrowhead (Pygmaea)); type: in vivo; conditions: flooded paddy, rated three to four weeks after treatment; further: meaning of each grade not given here
[6] = system: Echinochloa oryzoides (Ard.) Fritsch.; assay: Postemergence weed control under flooded paddy conditions, ECHORC (Watergrass (Calif.)); type: in vivo; conditions: rated three to four weeks after treatment
[7] = system: Cyperus iria; assay: Postemergence weed control under flooded paddy conditions, CYPIR (Rice Flatsedge); type: in vivo; conditions: rated three to four weeks after treatment
[8] = system: Cyperus serotinus, Rottb.; assay: Postemergence weed control under flooded paddy conditions, CYPSE (Flatsedge); type: in vivo; conditions: rated three to four weeks after treatment
[9] = system: Monochoria vaginalis, Presl.; assay: Postemergence weed control under flooded paddy conditions, MOOVA (Monochoria); type: in vivo; conditions: rated three to four weeks after treatment
[10] = system: Sagittaria pygmaea, L.; assay: Postemergence weed control under flooded paddy conditions, SAGPY (Arrowhead (Pygmaea)); type: in vivo; conditions: rated three to four weeks after treatment
[11] = system: Oryza sativa, (L.) Tebonnet; assay: Rice tolerance to post-transplant applications under flooded paddy conditions (Example 187), ORYSAT (Rice, Tebonnet); conditions: rated three to four weeks after treatment; further: meaning of each grade not given here
[12] = system: Oryza sativa, (L.) Tebonnet; assay: Rice tolerance to post-transplant applications under flooded paddy conditions (Example 188), ORYSAT (Rice, Tebonnet); conditions: rated three to four weeks after treatment
[13] = Rate 0.0320 kg/ha, preemergence weeds
[14] = Rate 0.0620 kg/ha, preemergence weeds
[15] = Rate 0.1250 kg/ha, preemergence weeds
[16] = Rate 0.2500 kg/ha, preemergence weeds
[17] = Rate 0.0320 kg/ha, preemergence
[18] = Rate 0.0620 kg/ha, preemergence
[19] = Rate 0.1250 kg/ha, preemergence
[20] = Rate 0.2500 kg/ha, preemergence

SMILES: COc1ccc(OC)c(-c2nsc3ccc(-n4c(=O)cc(C(F)(F)F)n(C)c4=O)cc23)c1 [Example 333, 2,4(1H,3H)-Pyrimidinedione, 3-[3-(2,5-dimethoxyphenyl)-1,2-benzisothiazol-5-yl]-1-methyl-6-(trifluoromethyl)-]
- herbicidal effect rating, ECHORC [1, 13]: 9.0
- herbicidal effect rating, ECHORC [1, 14]: 9.0
- herbicidal effect rating, ECHORC [1, 15]: 9.0
- herbicidal effect rating, ECHORC [1, 16]: 9.0
- herbicidal effect rating, CYPIR [2, 13]: 9.0
- herbicidal effect rating, CYPIR [2, 14]: 9.0
- herbicidal effect rating, CYPIR [2, 15]: 9.0
- herbicidal effect rating, CYPIR [2, 16]: 9.0
- herbicidal effect rating, CYPSE [3, 13]: 7.0
- herbicidal effect rating, CYPSE [3, 14]: 7.0
- herbicidal effect rating, CYPSE [3, 15]: 7.5
- herbicidal effect rating, CYPSE [3, 16]: 7.5
- herbicidal effect rating, MOOVA [4, 13]: 9.0
- herbicidal effect rating, MOOVA [4, 14]: 9.0
- herbicidal effect rating, MOOVA [4, 15]: 9.0
- herbicidal effect rating, MOOVA [4, 16]: 9.0
- herbicidal effect rating, SAGPY [5, 13]: 5.5
- herbicidal effect rating, SAGPY [5, 14]: 8.0
- herbicidal effect rating, SAGPY [5, 15]: 8.5
- herbicidal effect rating, SAGPY [5, 16]: 9.0
- herbicidal effect rating, ECHORC ([6]; Rate 0.0320 kg/ha): 9.0
- herbicidal effect rating, ECHORC ([6]; Rate 0.0620 kg/ha): 9.0
- herbicidal effect rating, ECHORC ([6]; Rate 0.1250 kg/ha): 9.0
- herbicidal effect rating, ECHORC ([6]; Rate 0.2500 kg/ha): 9.0
- herbicidal effect rating, CYPIR ([7]; Rate 0.0320 kg/ha): 9.0
- herbicidal effect rating, CYPIR ([7]; Rate 0.0620 kg/ha): 9.0
- herbicidal effect rating, CYPIR ([7]; Rate 0.1250 kg/ha): 9.0
- herbicidal effect rating, CYPIR ([7]; Rate 0.2500 kg/ha): 9.0
- herbicidal effect rating, CYPSE ([8]; Rate 0.0320 kg/ha): 0.0
- herbicidal effect rating, CYPSE ([8]; Rate 0.0620 kg/ha): 2.0
- herbicidal effect rating, CYPSE ([8]; Rate 0.1250 kg/ha): 4.0
- herbicidal effect rating, CYPSE ([8]; Rate 0.2500 kg/ha): 8.0
- herbicidal effect rating, MOOVA ([9]; Rate 0.0320 kg/ha): 9.0
- herbicidal effect rating, MOOVA ([9]; Rate 0.0620 kg/ha): 9.0
- herbicidal effect rating, MOOVA ([9]; Rate 0.1250 kg/ha): 9.0
- herbicidal effect rating, MOOVA ([9]; Rate 0.2500 kg/ha): 9.0
- herbicidal effect rating, SAGPY ([10]; Rate 0.0320 kg/ha): 0.0
- herbicidal effect rating, SAGPY ([10]; Rate 0.0620 kg/ha): 2.0
- herbicidal effect rating, SAGPY ([10]; Rate 0.1250 kg/ha): 4.0
- herbicidal effect rating, SAGPY ([10]; Rate 0.2500 kg/ha): 4.0
- herbicidal effect rating ORYSAT ([11]; Rate 0.0320 kg/ha): 4.0
- herbicidal effect rating ORYSAT ([11]; Rate 0.0620 kg/ha): 6.0
- herbicidal effect rating ORYSAT ([11]; Rate 0.1250 kg/ha): 7.0
- herbicidal effect rating ORYSAT ([11]; Rate 0.2500 kg/ha): 7.0
- herbicidal effect rating, ORYSAT (rice tolerance) ([12]; Rate 0.0320 kg/ha): 4.0
- herbicidal effect rating, ORYSAT (rice tolerance) ([12]; Rate 0.0620 kg/ha): 5.0
- herbicidal effect rating, ORYSAT (rice tolerance) ([12]; Rate 0.1250 kg/ha): 6.0
- herbicidal effect rating, ORYSAT (rice tolerance) ([12]; Rate 0.2500 kg/ha): 6.0

SMILES: CON(C)C(=O)COc1ccccc1-c1nsc2ccc(-n3c(=O)cc(C(F)(F)F)n(C)c3=O)cc12 [Example 354, Acetamide, 2-{o-{5-[3,6-dihydro-3-methyl-2,6-dioxo-4-(trifluoromethyl)-1(2H)-pyrimidinyl]-1,2-benzisothiazol-3-yl}phenoxy}-N-methoxy-N-methyl-]
- herbicidal effect rating, ECHORC [1, 17]: 9.0
- herbicidal effect rating, ECHORC [1, 18]: 9.0
- herbicidal effect rating, ECHORC [1, 19]: 9.0
- herbicidal effect rating, ECHORC [1, 20]: 9.0
- herbicidal effect rating, CYPIR [2, 17]: 8.3
- herbicidal effect rating, CYPIR [2, 18]: 9.0
- herbicidal effect rating, CYPIR [2, 19]: 9.0
- herbicidal effect rating, CYPIR [2, 20]: 9.0
- herbicidal effect rating, CYPSE [3, 17]: 8.0
- herbicidal effect rating, CYPSE [3, 18]: 9.0
- herbicidal effect rating, CYPSE [3, 19]: 9.0
- herbicidal effect rating, CYPSE [3, 20]: 9.0
- herbicidal effect rating, MOOVA [4, 17]: 9.0
- herbicidal effect rating, MOOVA [4, 18]: 9.0
- herbicidal effect rating, MOOVA [4, 19]: 9.0
- herbicidal effect rating, MOOVA [4, 20]: 9.0
- herbicidal effect rating, SAGPY [5, 17]: 6.3
- herbicidal effect rating, SAGPY [5, 18]: 9.0
- herbicidal effect rating, SAGPY [5, 19]: 9.0
- herbicidal effect rating, SAGPY [5, 20]: 9.0
- herbicidal effect rating, ECHORC ([6]; Rate 0.0320 kg/ha): 4.0
- herbicidal effect rating, ECHORC ([6]; Rate 0.0620 kg/ha): 7.0
- herbicidal effect rating, ECHORC ([6]; Rate 0.1250 kg/ha): 9.0
- herbicidal effect rating, CYPIR ([7]; Rate 0.0620 kg/ha): 9.0
- herbicidal effect rating, CYPIR ([7]; Rate 0.1250 kg/ha): 9.0
- herbicidal effect rating, CYPSE ([8]; Rate 0.0320 kg/ha): 1.0
- herbicidal effect rating, CYPSE ([8]; Rate 0.0620 kg/ha): 2.0
- herbicidal effect rating, CYPSE ([8]; Rate 0.1250 kg/ha): 9.0
- herbicidal effect rating, MOOVA ([9]; Rate 0.0320 kg/ha): 6.0
- herbicidal effect rating, MOOVA ([9]; Rate 0.0620 kg/ha): 9.0
- herbicidal effect rating, MOOVA ([9]; Rate 0.1250 kg/ha): 9.0
- herbicidal effect rating, SAGPY ([10]; Rate 0.0320 kg/ha): 0.0
- herbicidal effect rating, SAGPY ([10]; Rate 0.0620 kg/ha): 2.0
- herbicidal effect rating, SAGPY ([10]; Rate 0.1250 kg/ha): 9.0
- herbicidal effect rating ORYSAT ([11]; Rate 0.0320 kg/ha): 7.3
- herbicidal effect rating ORYSAT ([11]; Rate 0.0620 kg/ha): 8.0
- herbicidal effect rating ORYSAT ([11]; Rate 0.1250 kg/ha): 9.0
- herbicidal effect rating ORYSAT ([11]; Rate 0.2500 kg/ha): 9.0
- herbicidal effect rating, ORYSAT (rice tolerance) ([12]; Rate 0.0620 kg/ha): 6.0
- herbicidal effect rating, ORYSAT (rice tolerance) ([12]; Rate 0.1250 kg/ha): 6.0
